Source: patent US20040037843A1, “Inducing cellular immune responses to prostate cancer antigens using peptide and nucleic acid compositions” (priority 2003, published 2004)

Tested on: .221A2.1 peptide-loaded target cells and cells expressing endogenous antigen
Assay: Primary in vitro CTL induction with peptide-pulsed DC, CTL lytic activity by 51Cr release
Type: cell-based, human
Conditions: immunogenicity, positive/tested; for A2 peptide: CTL recognition of the peptide; for A2 native: CTL recognition of native (wild-type) target
Procedure: Testing was performed using the following methodology:
Cells that express an antigen of interest, or transfectants comprising the gene encoding the antigen of interest, can be used as target cells to test the ability of peptide-specific CTLs to recognize endogenous antigen.
The monocytes are purified by plating 10×10^6 PBMC/well in a 6-well plate. After 2 hours at 37° C., the non-adherent cells are removed by gently shaking the plates and aspirating the supernatants. The wells are washed a total of three times with 3 ml RPMI to remove most of the non-adherent and loosely adherent cells. Three ml of complete medium containing 50 ng/ml of GM-CSF and 1,000 U/ml of IL-4 are then added to each well. TNFα is added to the DCs on day 6 at 75 ng/ml and the cells are used for CTL induction cultures on day 7.
Induction of CTL with DC and Peptide: CD8+ T-cells are isolated by positive selection with Dynal imnmunomagnetic beads (Dynabeads® M-450) and the detacha-bead® reagent. Typically about 200-250×10^6 PBMC are processed to obtain 24×10^6 CD8^+T-cells (enough for a 48-well plate culture). Briefly, the PBMCs are thawed in RPMI with 30 μg/ml DNAse, washed once with PBS containing 1% human AB serum and resuspended in PBS/1% AB serum at a concentration of 20×10^6 cells/ml. The magnetic beads are washed 3 times with PBS/AB serum, added to the cells (140 μl beads/20×10^6 cells) and incubated for 1 hour at 4° C. with continuous mixing. The beads and cells are washed 4× with PBS/AB serum to remove the nonadherent cells and resuspended at 100×10^6 cells/ml (based on the original cell number) in PBS/AB serum containing 100 μl/ml detacha-bead® reagent and 30 μg/ml DNAse. The mixture is incubated for 1 hour at room temperature with continuous mixing. The beads are washed again with PBS/AB/DNAse to collect the CD8+ T-cells. The DC are collected and centrifuged at 1300 rpm for 5-7 minutes, washed once with PBS with 1% BSA, counted and pulsed with 40 μg/ml of peptide at a cell concentration of 1-2×10^6/ml in the presence of 3 μg/ml β2-microglobulin for 4 hours at 20° C. The DC are then irradiated (4,200 rads), washed 1 time with medium and counted again.
Setting up induction cultures: 0.25 ml cytokine-generated DC (@1×10^5 cells/ml) are co-cultured with 0.25 ml of CD8+ T-cells (@2×10^6 cell/ml) in each well of a 48-well plate in the presence of 10 ng/ml of IL-7. Recombinant human IL10 is added the next day at a final concentration of 10 ng/ml and rhuman IL2 is added 48 hours later at 10 IU/mL.
Restimulation of the induction cultures with peptide-pulsed adherent cells: Seven and fourteen days after the primary induction the cells are restimulated with peptide-pulsed adherent cells. The PBMCS are thawed and washed twice with RPMI and DNAse. The cells are resuspended at 5×10^6 cells/ml and irradiated at ˜4200 rads. The PBMCs are plated at 2×10^6 in 0.5 ml complete medium per well and incubated for 2 hours at 37° C. The plates are washed twice with RPMI by tapping the plate gently to remove the nonadherent cells and the adherent cells pulsed with 10 μg/ml of peptide in the presence of 3 μg/ml β2 microglobulin in 0.25 ml RPMI/5% AB per well for 2 hours at 37° C. Peptide solution from each well is aspirated and the wells are washed once with RPMI. Most of the media is aspirated from the induction cultures (CD8+ cells) and brought to 0.5 ml with fresh media. The cells are then transferred to the wells containing the peptide-pulsed adherent cells. Twenty four hours later rhuman IL10 is added at a final concentration of 10 ng/ml and rhuman IL2 is added the next day and again 2-3 days later at 50 IU/ml (Tsai et al., Critical Reviews in Immunology 18(1-2):65-75, 1998). Seven days later the cultures are assayed for CTL activity in a ^51Cr release assay. In some experiments the cultures are assayed for peptide-specific recognition in the in situ IFNγ ELISA at the time of the second restimulation followed by assay of endogenous recognition 7 days later. […]

| Structure (SMILES) | A2 peptide | A2 native |
| --- | --- | --- |
| CC[C@H](C)[C@H](NC(=O)[C@H](CC(=O)O)NC(=O)[C@H](Cc1ccccc1)NC(=O)[C@H](CC(C)C)NC(=O)[C@H](C)N)C(=O)N[C@@H](CCC(=O)O)C(=O)N[C@@H](CO)C(=O)N[C@@H](CCCCN)C(=O)N[C@H](C(=O)O)C(C)C [Peptide 1129.08] | 2/2 | – |
| CC[C@H](C)[C@H](NC(=O)[C@@H]1CCCN1C(=O)[C@H](Cc1c[nH]cn1)NC(=O)[C@@H](NC(=O)[C@@H]1CCCN1C(=O)[C@@H](NC(=O)[C@H](CO)NC(=O)[C@@H]1CCCN1C(=O)[C@H](CC(C)C)NC(=O)CN)[C@@H](C)CC)C(C)C)C(=O)O [Peptide 1129.10] | 2/4 | – |
| CSCC[C@H](NC(=O)[C@H](C)NC(=O)[C@H](CO)NC(=O)[C@H](CCSC)NC(=O)[C@H](CC(C)C)NC(=O)[C@@H](N)[C@@H](C)O)C(=O)N[C@H](C(=O)N[C@@H](CC(N)=O)C(=O)N[C@@H](CC(C)C)C(=O)O)[C@@H](C)O [Peptide 1177.01] | 2/2 | – |
| CSCC[C@H](N)C(=O)N[C@@H](CC(C)C)C(=O)N[C@@H](CC(C)C)C(=O)N[C@@H](CCCNC(=N)N)C(=O)N[C@@H](CC(C)C)C(=O)N[C@@H](CO)C(=O)N[C@@H](CCC(=O)O)C(=O)N1CCC[C@H]1C(=O)N[C@H](C(=O)O)C(C)C [Peptide 1389.10] | 3/3 | 1/3 |
| CC(C)C[C@H](NC(=O)[C@H](C)N)C(=O)NCC(=O)N[C@H](C(=O)N[C@H](C(=O)N[C@@H](CS)C(=O)N[C@@H](Cc1ccc(O)cc1)C(=O)N[C@H](C(=O)O)C(C)C)[C@@H](C)O)[C@@H](C)O [Peptide 1389.14] | 2/3 | 1/3 |
| CC(C)C[C@H](NC(=O)[C@H](Cc1ccccc1)NC(=O)[C@H](Cc1ccccc1)NC(=O)CNC(=O)CNC(=O)[C@H](C)NC(=O)[C@H](CC(C)C)NC(=O)[C@@H](N)C(C)C)C(=O)N[C@H](C(=O)O)C(C)C [Peptide 1389.20] | 1/2 | 1/2 |
| CC[C@H](C)[C@H](NC(=O)[C@H](CO)NC(=O)[C@@H]1CCCN1C(=O)[C@H](CC(C)C)NC(=O)CN)C(=O)N1CCC[C@H]1C(=O)N[C@H](C(=O)N[C@@H](Cc1c[nH]cn1)C(=O)N1CCC[C@H]1C(=O)N[C@H](C(=O)O)C(C)C)C(C)C [Peptide 1389.24] | 4/4 | 3/4 |
| CC[C@H](C)[C@H](NC(=O)[C@H](CO)NC(=O)[C@H](CC(C)C)NC(=O)[C@H](CC(C)C)NC(=O)[C@@H](N)CC(C)C)C(=O)N[C@@H](C)C(=O)N[C@@H](CC(C)C)C(=O)N[C@@H](CO)C(=O)N[C@H](C(=O)O)C(C)C [Peptide 1418.13] | 2/2 | 2/2 |
| CC(C)C[C@H](NC(=O)[C@H](Cc1c[nH]c2ccccc12)NC(=O)[C@H](Cc1ccccc1)NC(=O)[C@H](Cc1ccccc1)NC(=O)[C@@H](NC(=O)[C@@H](N)CC(C)C)[C@@H](C)O)C(=O)N[C@@H](CC(=O)O)C(=O)N[C@@H](CCCNC(=N)N)C(=O)N[C@@H](CO)C(=O)N[C@H](C(=O)O)C(C)C [Peptide 1418.23] | 3/3 | 2/3 |
| CC[C@H](C)[C@H](N)C(=O)N[C@H](C(=O)N[C@@H](CC(C)C)C(=O)N[C@@H](Cc1c[nH]c2ccccc12)C(=O)N[C@@H](CCC(N)=O)C(=O)N1CCC[C@H]1C(=O)N[C@H](C(=O)N1CCC[C@H]1C(=O)N[C@H](C(=O)O)C(C)C)[C@@H](C)CC)[C@@H](C)O [Peptide 1418.25] | 3/3 | 2/3 |
| CC(C)C[C@H](NC(=O)[C@H](C)N)C(=O)NCC(=O)N[C@H](C(=O)N[C@H](C(=O)N[C@@H](CS)C(=O)N[C@@H](Cc1ccc(O)cc1)C(=O)N[C@@H](C)C(=O)O)[C@@H](C)O)[C@@H](C)O [Peptide 1419.01] | 1/2 | – |
| CC(C)C[C@H](NC(=O)[C@H](CO)NC(=O)[C@H](CCCNC(=N)N)NC(=O)[C@@H]1CCCN1C(=O)[C@H](CCCNC(=N)N)NC(=O)[C@H](CC(C)C)NC(=O)[C@@H](N)Cc1ccccc1)C(=O)N[C@@H](CCC(N)=O)C(=O)N[C@@H](CS)C(=O)N[C@H](C(=O)O)C(C)C [Peptide 1419.07] | 1/3 | – |
| CC(C)C[C@H](NC(=O)[C@@H](N)C(C)C)C(=O)N[C@H](C(=O)N[C@@H](Cc1c[nH]cn1)C(=O)N1CCC[C@H]1C(=O)N[C@@H](CCC(N)=O)C(=O)N[C@@H](Cc1c[nH]c2ccccc12)C(=O)N[C@H](C(=O)N[C@@H](CC(C)C)C(=O)N[C@H](C(=O)N[C@H](C(=O)O)C(C)C)[C@@H](C)O)C(C)C)C(C)C [Peptide 1419.11] | 2/2 | 2/2 |
| CSCC[C@H](NC(=O)[C@H](CC(C)C)NC(=O)[C@@H](N)CC(=O)O)C(=O)N[C@@H](CC(C)C)C(=O)N[C@@H](CC(C)C)C(=O)N[C@@H](CCCNC(=N)N)C(=O)N[C@@H](CC(C)C)C(=O)N[C@@H](CO)C(=O)N[C@@H](CCC(=O)O)C(=O)N1CCC[C@H]1C(=O)N[C@H](C(=O)O)C(C)C [Peptide 1419.13] | 2/2 | 2/2 |
| CSCC[C@H](NC(=O)[C@H](CC(=O)O)NC(=O)[C@H](CC(N)=O)NC(=O)[C@H](CO)NC(=O)[C@H](CC(C)C)NC(=O)[C@H](CC(C)C)NC(=O)[C@H](Cc1c[nH]cn1)NC(=O)[C@H](CC(C)C)NC(=O)[C@@H](N)CO)C(=O)N[C@@H](CS)C(=O)N[C@@H](C)C(=O)O [Peptide 1419.14] | 1/3 | – |
| CC(C)C[C@H](NC(=O)[C@@H]1CCCN1)C(=O)N[C@H](C(=O)N[C@@H](CS)C(=O)N[C@@H](CC(N)=O)C(=O)NCC(=O)N[C@H](C(=O)N[C@@H](CC(C)C)C(=O)N[C@@H](CCC(N)=O)C(=O)NCC(=O)N[C@H](C(=O)O)C(C)C)C(C)C)C(C)C [Peptide 1419.17] | 2/2 | 2/2 |
| CC(C)C[C@H](NC(=O)[C@H](CC(=O)O)NC(=O)[C@@H](NC(=O)[C@H](CS)NC(=O)[C@H](CCC(N)=O)NC(=O)[C@H](CC(C)C)NC(=O)[C@@H](N)CCCCN)C(C)C)C(=O)N[C@@H](Cc1c[nH]cn1)C(=O)N[C@H](C(=O)N[C@H](C(=O)O)C(C)C)C(C)C [Peptide 1419.24] | 1/2 | 1/2 |
| CC[C@H](C)[C@H](NC(=O)[C@H](Cc1c[nH]c2ccccc12)NC(=O)[C@@H](NC(=O)[C@@H](NC(=O)[C@H](CO)NC(=O)[C@H](CC(C)C)NC(=O)[C@@H](NC(=O)[C@H](CC(C)C)NC(=O)[C@@H](N)Cc1ccccc1)[C@@H](C)O)C(C)C)[C@@H](C)O)C(=O)NCC(=O)N[C@H](C(=O)O)C(C)C [Peptide 1419.27] | 3/3 | 3/3 |
| CC(C)C[C@H](NC(=O)[C@H](C)N)C(=O)N[C@@H](Cc1ccccc1)C(=O)N1CCC[C@H]1C(=O)N1CCC[C@H]1C(=O)N[C@@H](CCC(=O)O)C(=O)NCC(=O)N[C@H](C(=O)N[C@@H](CO)C(=O)N[C@H](C(=O)O)C(C)C)C(C)C [Peptide 1419.61] | 1/3 | 1/3 |
